Patent publication US20240139207A1, “METHODS FOR TREATING PULMONARY HYPERTENSION” (United Therapeutics Corporation, priority 2022, published 2024)

Columns and labels:
[1] = tested on: Pulmonary hypertension patients; conditions: cited from earlier work
[2] = tested on: patients with pulmonary arterial hypertension; assay: Phase 4 open-label 16-week study: echocardiography parameters; type: in vivo, human
Excerpt: (§1) Based on the 2015 ESC/ERS Guidelines, specific hemodynamic inclusion criteria included a mean pulmonary arterial pressure ≥25 mmHg, pulmonary artery wedge pressure or left ventricular end-diastolic pressure ≤15 mmHg, and pulmonary vascular resistance >3 Wood units, in the absence of unrepaired congenital heart disease. Other key inclusion criteria were World Health Organization functional class (FC) II or III, 6-minute walk distance (6MWD)≥250 m, and a REVEAL 2.0 risk score ≤9 (Benza et al. 2021, DOI: https://doi.org/10.1016/j.chest.2020.08.2069). Patients could be receiving up to two oral PAH background therapies if taken at a stable dose for ≥30 days prior to baseline. As this study focused on the addition of a new therapy rather than the replacement of one therapy by another therapy, participants were eligible regardless of the number of pulmonary arterial hypertension background therapies (0, 1, or 2) they were receiving at baseline. […] Baseline assessments were collected up to 14 days prior to initiation of parenteral treprostinil, and included hemodynamics via echocardiogram and RHC, FC, N-terminal-pro brain natriuretic peptide (NT-proBNP), 6MWD, and medication history. Of note, historical RHC data could be used for baseline assessments if performed up to 180 days prior to initiating parenteral treprostinil. Echocardiograms were uploaded and stored in a central repository and evaluated by an independent central reader in accordance with the American Society of Echocardiography Guidelines (Bossone et al., DOI: 10.1016/j.echo.2012.10.009).
(§2) Once patients reached at least 20 ng/kg/min and were deemed suitable for transition based on physician assessment, they were transitioned at Week 2,4, or 8 to oral treprostinil via cross-titration in an inpatient or outpatient setting over 1-21 days. All participants still receiving parenteral treprostinil at Week 8 began transitioning to oral treprostinil regardless of their parenteral treprostinil dose unless deemed unsuitable for transition by their clinician. Before transition, 6MWD, WHO FC, NT-proBNP, and echocardiography parameters were assessed.
The primary endpoint was the percentage of patients who achieved an oral treprostinil TDD of at least 12 mg (0.171 mg/kg for patients <70 kg) at Week 16. Secondary endpoints included change from baseline to Week 16 in risk strata and clinical parameters, where baseline values were collected within 14 days prior to parenteral treprostinil initiation. Changes in risk strata for FC, NT-proBNP, 6MWD, and right atrial (RA) area were assessed using the 2015 ESC/ERS Guidelines, which categorizes risk for each determinant as low, intermediate, and high (Galiè et al., 2016). Clinical parameters of interest included FC, NT-proBNP, 6MWD, echocardiography parameters, REVEAL Lite 2 score (Benza et al., 2021), and Borg Dyspnea Score (Borg, 1982, DOI: https://doi.org/10.1249/00005768-198205000-00012). The REVEAL Lite 2 score includes clinical parameters to determine the risk status (low, intermediate, and high) for pulmonary arterial hypertension. The Borg Dyspnea Score ranges from 0 to 10, where 0 indicates no dyspnea and 10 indicates very, very heavy (almost maximal) dyspnea. Patient-reported outcomes were assessed using the emPHasis-10 quality of life questionnaire (Yorke et al., 2014, DOI: 10.1183/09031936.00127113) and the Pulmonary Arterial Hypertension Symptom Scale (PAHSS) (Matura et al., 2015, DOI: https://doi.org/10.1016/j.apnr.2014.04.001). The Treatment Satisfaction Questionnaire for Medication (TSQM) (Atkinson et al., 2004, DOI: https://doi.org/10.1186/1477-7525-2-12) was used to measure patient satisfaction with their medication over the last two to three weeks; higher scores indicate greater satisfaction. EmPHasis-10 scores can range from 0 to 50, where lower scores indicate better quality of life. […]

[3] = tested on: patients with pulmonary arterial hypertension; assay: Phase 4 open-label 16-week study: safety and tolerability, prostanoid-related adverse events; type: in vivo, human; conditions: for most bothersome AE: during the phase of the labelled form; for participants who received acetaminophen for prostacyclin-related headache / participants who received loperamide for prostacyclin-related diarrhea / participants who received ondansetron for prostacyclin-related nausea/vomiting: per-protocol population (n=29), while on the labelled form
Protocol: Safety and tolerability were assessed at each scheduled visit and in between visits as needed throughout the duration of the study. Tolerability measures of interest included incidence of all adverse events (AEs) and prostanoid-related AEs including headache, diarrhea, nausea, vomiting, flushing, jaw pain and extremity pain. […] Prostanoid-related events captured by the survey were only recorded if the event was unusual with respect to intensity, frequency, or duration compared to symptoms in the patient's medical history. Patient compliance with taking oral treprostinil was assessed by performing study drug accountability at each scheduled study visit. The primary endpoint and all efficacy endpoints were analyzed using the per-protocol population, which included all patients without major protocol deviations unless otherwise specified. The exact (Clopper-Pearson) 95% confidence interval was calculated for the primary endpoint. […] For continuous variables, descriptive statistics are reported as median (interquartile range, IQR or range) or mean (±standard deviation, SD). For categorical variables, descriptive statistics include frequency and percentage of patients in each category. Changes from baseline to Week 16 for continuous variables were analyzed using Wilcoxon signed rank test. The change in FC from baseline to Week 16 was analyzed using McNemar's test. The p-values from these tests were derived for descriptive purposes and not part of a formal hypothesis testing framework.

[4] = tested on: patients with pulmonary arterial hypertension; assay: Phase 4 open-label 16-week study: clinical parameters, risk stratification, patient-reported outcomes; type: in vivo, human
Excerpt: The secondary endpoints of this study included measurements in: changes in prostanoid adverse events (AEs), echocardiograms, change in 6-minute walk distance (6MWD), change in Borg dyspnea score, change in World Health Organization (WHO) functional class (FC), change in serum N-terminal pro-brain natriuretic peptide (NT-proBNP) levels, impact of pulmonary hypertension on a person's life (health-related quality of life), and treatment satisfaction. Specifically, this study sought to measure the percentage of subjects that improved in each of the following individual four clinical parameters at Week 16 (6MWD, NT-proBNP, WHO FC, right atrial area) to a lower risk stratum, as defined by the 2015 ESC/ERS guidelines (Gailè et al., DOI: 10.1183/13993003.01032-2015), compared to baseline measurements. An additional endpoint was determining the percentage of subjects that meet each of the following four individual clinical parameters at Week 16 in the low risk category, as defined by 2015 ESC/ERS guidelines: 6MWD>440 meters, […].
as §1, §2
The primary endpoint was the percentage of patients who achieved an oral treprostinil TDD of at least 12 mg (0.171 mg/kg for patients <70 kg) at Week 16. Secondary endpoints included change from baseline to Week 16 in risk strata and clinical parameters, where baseline values were collected within 14 days prior to parenteral treprostinil initiation. Changes in risk strata for FC, NT-proBNP, 6MWD, and right atrial (RA) area were assessed using the 2015 ESC/ERS Guidelines, which categorizes risk for each determinant as low, intermediate, and high (Galiè et al., 2016). Clinical parameters of interest included FC, NT-proBNP, 6MWD, echocardiography parameters, REVEAL Lite 2 score (Benza et al., 2021), and Borg Dyspnea Score (Borg, 1982, DOI: https://doi.org/10.1249/00005768-198205000-00012). […]

[5] = tested on: Pulmonary arterial hypertension patients; conditions: cited from earlier work
[6] = Oral Treprostinil Phase (After Transition), n = 32
[7] = 2015 ESC/ERS risk strata, baseline to Week 16
[8] = transition visit, per-protocol population
[9] = Parenteral Treprostinil Phase (Before Transition), n = 35

CCCCC[C@H](O)CC[C@@H]1[C@H]2Cc3cccc(OCC(=O)O)c3C[C@H]2C[C@H]1O [oral treprostinil, treprostinil]
outcomes, including 6-minute walk distances, in patients who attained higher total daily doses [1]: better outcomes
Cardiac output, median ([2]; Week 16): 4.9 L/min
Heart rate, median ([2]; Week 16): 76 bpm
LV diameter, median ([2]; Week 16): 44.9 mm
LV eccentricity, diast., median ([2]; Week 16): 1.0
LV eccentricity, syst., median ([2]; Week 16): 1.2
LVOT integral, median ([2]; Week 16): 19.5 cm
LVOT, median ([2]; Week 16): 19.6 mm
PVAT, median ([2]; Week 16): 89.9 ms
RA area, median ([2]; Week 16): 17.5 cm^2
RV MPI, median ([2]; Week 16): 0.4
RV diameter, median ([2]; Week 16): 24.8 mm
RV wall strain, median ([2]; Week 16): −19.2%
RV/LV ratio, diastole, median ([2]; Week 16): 0.6
TAPSE, median ([2]; Week 16): 19.9 mm
Cardiac output, median Change from Baseline ([2]; baseline to Week 16): +0.5 L/min
Heart rate, median Change from Baseline ([2]; baseline to Week 16): +2 bpm
LV diameter, median Change from Baseline ([2]; baseline to Week 16): +3.5 mm
LV eccentricity, diast., median Change from Baseline ([2]; baseline to Week 16): 0.0
LV eccentricity, syst., median Change from Baseline ([2]; baseline to Week 16): +0.1
LVOT integral, median Change from Baseline ([2]; baseline to Week 16): +0.9 cm
LVOT, median Change from Baseline ([2]; baseline to Week 16): +0.4 mm
PVAT, median Change from Baseline ([2]; baseline to Week 16): +4.4 ms
RA area, median Change from Baseline ([2]; baseline to Week 16): −2.9 cm^2
RV MPI, median Change from Baseline ([2]; baseline to Week 16): −0.1
RV diameter, median Change from Baseline ([2]; baseline to Week 16): −2.6 mm
RV wall strain, median Change from Baseline ([2]; baseline to Week 16): +1.3%
RV/LV ratio, diastole, median Change from Baseline ([2]; baseline to Week 16): −0.1
TAPSE, median Change from Baseline ([2]; baseline to Week 16): +1.2 mm
Diarrhea, patients with AE [3, 6]: 17 (53) n (%)
Extremity pain, patients with AE [3, 6]: 11 (34) n (%)
Flushing, patients with AE [3, 6]: 17 (53) n (%)
Headache, patients with AE [3, 6]: 19 (59) n (%)
Jaw pain, patients with AE [3, 6]: 16 (50) n (%)
Nausea, patients with AE [3, 6]: 21 (66) n (%)
Vomiting, patients with AE [3, 6]: 9 (28) n (%)
adverse events headache, nausea, and vomiting ([3]; after transition from Remodulin to Orenitram): tended to improve
use of all concomitant medications ([3]; after transitioning from parenteral to oral treprostinil): decreased
bothersomeness of extremity pain, jaw pain and headache ([3]; after transitioning to oral treprostinil, scale 1 bothers me a lot to 4 not at all bothersome): not at all bothersome
most bothersome AE [3]: diarrhea and nausea
participants who received acetaminophen for prostacyclin-related headache [3]: 38%
participants who received loperamide for prostacyclin-related diarrhea [3]: 38%
participants who received ondansetron for prostacyclin-related nausea/vomiting [3]: 48%
tolerability ([3]; three times daily): well tolerated
percentage of patients who shifted to a lower risk stratum for 6MWD [4, 7]: 15%
percentage of patients who shifted to a lower risk stratum for FC [4, 7]: 39%
percentage of patients who shifted to a lower risk stratum for NT-proBNP [4, 7]: 39%
percentage of patients who shifted to a lower risk stratum for RA area [4, 7]: 35%
6MWD, median ([4]; Week 16): 395 m
Borg Dyspnea Score, median ([4]; Week 16): 3
NT-proBNP, median ([4]; Week 16): 212 ng/L
REVEAL Lite 2 score, median ([4]; Week 16): 3.5
percentage of patients classified as FC I ([4]; Week 16 (0% at baseline)): 46%
Borg Dyspnea Score, median change from baseline ([4]; baseline to Week 16): −1
NT-proBNP, median change from baseline ([4]; baseline to Week 16): -134 ng/L
PAHSS domains ([4]; baseline to Week 16): improvements were seen in most domains
REVEAL Lite 2 score, median change from baseline ([4]; baseline to Week 16): −1
emPHasis- scores (quality of life), median change from baseline ([4]; baseline to Week 16): −3
patients improving in WHO FC ([4]; baseline to Week 16): 68%
patients worsening in WHO FC ([4]; baseline to Week 16): one

CCCCC[C@H](O)CC[C@@H]1[C@H]2Cc3cccc(OCC(=O)O)c3C[C@H]2C[C@H]1O [parenteral treprostinil, treprostinil]
TAPSE, median (IQR) [2, 8]: 18.1 (14.8, 20.9) mm
right atrial area, median (IQR) [2, 8]: 19.3 (16.0, 26.7) cm2
Diarrhea, patients with AE [3, 9]: 18 (51) n (%)
Extremity pain, patients with AE [3, 9]: 12 (34) n (%)
Flushing, patients with AE [3, 9]: 10 (29) n (%)
Headache, patients with AE [3, 9]: 28 (80) n (%)
Jaw pain, patients with AE [3, 9]: 16 (46) n (%)
Nausea, patients with AE [3, 9]: 24 (69) n (%)
Vomiting, patients with AE [3, 9]: 13 (37) n (%)
most bothersome AE [3]: extremity pain, followed by jaw pain, headache, and diarrhea
patients reporting at least one treatment-emergent AE ([3]; patients who initiated parenteral treprostinil): All patients
participants who received acetaminophen for prostacyclin-related headache [3]: 55%
participants who received loperamide for prostacyclin-related diarrhea [3]: 34%
participants who received ondansetron for prostacyclin-related nausea/vomiting [3]: 69%
patients who improved WHO FC ([4]; transition visit, 29 patients): 76%
patients who maintained WHO FC ([4]; transition visit, 29 patients): 21%
patients who worsened WHO FC ([4]; transition visit, 29 patients): 3%
6MWD, median (IQR) [4, 8]: 377 (318, 453) m
NT-proBNP, median (IQR) [4, 8]: 186 (110, 724) ng/L

O=C(O)COC[C@H]1CC[C@H](COC(=O)N(c2ccccc2)c2ccc(Cl)cc2)CC1 [ralinepag]
outcomes, including pulmonary vascular resistance and 6-minute walk distances, versus placebo [5]: better outcomes

CCCCC[C@H](O)CC[C@@H]1[C@H]2Cc3cccc(OCC(=O)O)c3C[C@H]2C[C@H]1O [treprostinil]
Diarrhea, patients with AE ([3]; Transition Phase, n = 33): 17 (52) n (%)
Extremity pain, patients with AE ([3]; Transition Phase, n = 33): 10 (30) n (%)
Flushing, patients with AE ([3]; Transition Phase, n = 33): 10 (30) n (%)
Headache, patients with AE ([3]; Transition Phase, n = 33): 19 (58) n (%)
Jaw pain, patients with AE ([3]; Transition Phase, n = 33): 15 (46) n (%)
Nausea, patients with AE ([3]; Transition Phase, n = 33): 21 (64) n (%)
Vomiting, patients with AE ([3]; Transition Phase, n = 33): 5 (15) n (%)
